# Experimental data as given in article PMC9369007 (International Journal of Molecular Sciences, 2022).
# Key:
# HCT116 cells = assay: MTT cytotoxicity assay, HCT116; conditions: Homo sapiens, HCT-116, 72 h, read-out: In Vitro Cytotoxicity IC50 HCT116
# Description: (§4) The in vitro cytotoxic testing of novel derivatives was performed against different three cancer cell lines, HepG2, MCF-7, and HCT116, using standard MTT assay as previously reported [22, 62, 63, 64].
# MCF-7 cells [1] = assay: MTT cytotoxicity assay, MCF-7; conditions: Homo sapiens, MCF7, 72 h, read-out: In Vitro Cytotoxicity IC50 MCF-7
# Description: as §4
# MCF-7 cells [2] = assay: Cell cycle analysis by flow cytometry; type: cell-based, human; parameters: DNA Content %G0-G1 / DNA Content %S / DNA Content %G2-M / DNA Content %Pre G1: dose or concentration left out as unconfirmed; conditions: MCF-7, 24 h
# Description: The cell cycle is a series of growth and development processes that culminate in DNA replication and cell division. G1 phase, S phase (synthesis), G2 phase, and M phase are the four different phases. We chose our promising chemical 27 based on the results of the MTT assay (Table 1) to further examine its effect on the apoptotic process and investigate its ability to play an active role in cell cycle progression in MCF-7 cells. MCF-7 cells were treated for 24 h with compound 27 at a concentration of […], and flow cytometry was performed in the presence of annexin V-FITC/PI.
# (§1) Using the annexin V-FITC and PI apoptosis kit (eBioscience^TM, San Diego, CA, USA), the apoptosis detection was performed. MCF cells were plated onto a six-well plate at a 600,000 cells/mL density and then treated with compound 27 at […] after 24 h of incubation, and the assay was completed as previously described.
# Cell cycle arrest and distribution was assessed, using the Propidium Iodide Flow Cytometry Kit (ab139418, Abcam, USA, CA, USA), followed by flow cytometry analysis according to the previous methodology.
# hMAO-A = target: T1, hMAO-A (Homo sapiens, UniProt P21397); assay: MAO activity screening, hMAO-A; type: biochemical; conditions: tyramine at 2 × KM (0.8 mM); two independent experiments
# T1 sequence (P21397 1-527): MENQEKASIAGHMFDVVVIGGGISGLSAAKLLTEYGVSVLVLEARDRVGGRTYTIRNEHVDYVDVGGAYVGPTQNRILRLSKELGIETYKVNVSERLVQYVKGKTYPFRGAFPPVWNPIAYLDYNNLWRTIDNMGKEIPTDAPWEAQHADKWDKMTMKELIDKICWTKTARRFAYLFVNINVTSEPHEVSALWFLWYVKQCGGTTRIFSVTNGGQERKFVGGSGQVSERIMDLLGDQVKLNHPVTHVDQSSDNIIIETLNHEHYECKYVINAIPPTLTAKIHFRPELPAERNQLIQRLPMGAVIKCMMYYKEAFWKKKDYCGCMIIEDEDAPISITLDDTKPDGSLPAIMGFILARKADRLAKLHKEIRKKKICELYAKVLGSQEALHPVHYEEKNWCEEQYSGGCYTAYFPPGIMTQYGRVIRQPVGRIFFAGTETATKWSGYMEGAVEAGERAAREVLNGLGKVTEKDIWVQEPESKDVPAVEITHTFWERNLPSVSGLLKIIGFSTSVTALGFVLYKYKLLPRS
# Description: (§2) Here, the potent selective compound 27 was screened for measuring target selectivity against high structural similar membrane-bound human hMAO-A and hMAO-B at 10 µM in the presence of tyramine at 2 × KM (0.8 mM for MAO-A and 0.32 mM for MAO-B) (Table 5).
# (§3) The coupled assay approach was used to evaluate MAO activity in which the product, H2O2, acts with horseradish peroxidase to convert 10-acetyl-3,7-dihydroxyphenoxazine to the fluorescent resorufin. The percent inhibition was computed from the top and bottom of the resultant curve using the equation for a three-parameter curve in GraphPad Prism v. 4, (Graphstats, New York, NY, USA).
# LSD1 demethylase = LSD1 demethylase (Homo sapiens, UniProt O60341); assay: LSD1 demethylase inhibition assay
# Description: The inhibition of LSD1 activity by our tested compounds was evaluated according to a previously reported procedure [65, 66, 67, 68] and as mentioned in the assay kit in Supplementary Materials.
# MCF-7 cells [3] = assay: Annexin V-FITC/PI dual staining apoptosis assay; type: cell-based, human; conditions: MCF-7, 2.0 µM, 24 h
# Description: This test used the breast MCF-7 cell line to assess the percentage of apoptosis caused by compound 27, in which MCF-7 cells were treated with compound 27 at 2.0 µM concentration for 24 h to measure the percentage of apoptosis induced by compound 27. […] These findings are in line with statistics derived from DNA content.
# Each sample’s histogram was separated into four quadrants to show viable (lower left quadrant), necrotic (higher left quadrant), apoptotic (lower right quadrant), and necrotic/late apoptotic (upper right quadrant) cells. The Annexin V Apoptosis Detection Kit is based on the finding that apoptotic cells can transport phosphatidylserine (PS) from the plasma membrane’s inner surface to the cell surface. As a result, the presence of PS on the cell surface is regarded as an important technique for detecting apoptotic cells. PS can be easily detected by labeling with a fluorescent compound of annexin V, a protein with a high affinity for PS, and then analyzing the results by flow cytometry. When annexin V and PI staining are performed simultaneously, the kit can distinguish between apoptosis and necrosis. Only when the plasma membrane is completely damaged may PI enter the cell. This allows early apoptotic cells (negative for PI but positive for PS) to be distinguished from late apoptotic and necrotic cells (positive for both PI and PS). […] Cells were tested using annexin V and PI double-staining flow cytometry, which detect both PS residues and DNA, respectively, to validate the potential to trigger apoptosis. They were then cultured for 24 h before being examined. The tested compound was able to produce considerable levels of cell death in a dose-dependent manner, according to analyses of early and late apoptosis (Table 4, Figure 2 and Figure 3).
# as §1
# The MCF-7 cells were treated with tested compounds 27 for 24 h and stained with annexin V-FITC/PI to detect externalization of PS from cell membrane and analyze apoptotic and necrotic cell population as previously described.
# HepG2 and MCF-7 cells = assay: DNA fragmentation, diphenylamine test; type: cell-based, human; conditions: 24 h at IC50 value, untreated control about 4.7 ± 0.2%
# Description: Apoptosis is characterized by DNA fragmentation, which occurs in all stages of the process. The percentage of fragmented DNA released into the cytoplasm from apoptotic nuclei was determined using a diphenylamine test.
# DNA fragmentation was quantitatively determined using a diphenylamine (DPA) reagent according to the method of Boraschi and Maurizi.
# hMAO-B = target: T2, hMAO-B (Homo sapiens, UniProt P27338); assay: MAO activity screening, hMAO-B; type: biochemical; conditions: tyramine at 2 × KM (0.32 mM); two independent experiments
# T2 sequence (P27338 1-520): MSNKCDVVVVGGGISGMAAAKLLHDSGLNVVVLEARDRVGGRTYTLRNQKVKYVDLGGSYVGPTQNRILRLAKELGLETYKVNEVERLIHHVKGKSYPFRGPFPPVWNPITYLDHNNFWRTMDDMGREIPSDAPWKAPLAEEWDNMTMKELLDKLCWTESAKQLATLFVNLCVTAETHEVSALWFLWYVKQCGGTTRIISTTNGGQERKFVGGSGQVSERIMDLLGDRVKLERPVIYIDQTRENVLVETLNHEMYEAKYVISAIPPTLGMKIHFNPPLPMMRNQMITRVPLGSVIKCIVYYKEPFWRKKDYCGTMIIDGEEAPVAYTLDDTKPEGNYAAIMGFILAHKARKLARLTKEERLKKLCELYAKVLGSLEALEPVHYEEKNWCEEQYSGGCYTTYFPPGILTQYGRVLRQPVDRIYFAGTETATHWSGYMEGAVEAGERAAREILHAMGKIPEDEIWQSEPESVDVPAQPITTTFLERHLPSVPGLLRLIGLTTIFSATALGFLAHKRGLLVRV
# Description: as §2, §3
# HepG2 cells = assay: MTT cytotoxicity assay, HepG2; conditions: Homo sapiens, HepG2, 72 h, read-out: In Vitro Cytotoxicity IC50 HepG2
# Description: as §4
# in vitro = conditions: human, WI38 normal lung fibroblast cells
smiles,measurement,setting,value
"C=CCNc1nnc(-c2cc(-c3nnc(NCC=C)s3)cc(-c3nnc(NCC=C)s3)c2)s1 [Compound 27, 5,5′,5″-(benzene-1,3,5-triyl)tris(N-allyl-1,3,4-thiadiazol-2-amine)]",IC50,HCT116 cells,10.3 ± 0.15 µM
same,IC50,MCF-7 cells [1],1.52 ± 1.02 µM
same,Comment (cell cycle),MCF-7 cells [2],pre G1 Apoptosis and cell cycle arrest at G2-M
same,DNA Content %G0-G1,MCF-7 cells [2],35.15%
same,DNA Content %G2-M,MCF-7 cells [2],35.59%
same,DNA Content %Pre G1,MCF-7 cells [2],37.11%
same,DNA Content %S,MCF-7 cells [2],28.26%
same,IC50,hMAO-A,87.1 ± 2.36 µM
same,IC50,"LSD1 demethylase; LSD1 inhibition IC50, as quoted in the docking section",0.0464 µM
same,IC50,"LSD1 demethylase; LSD1 inhibitory IC50, Table 2, mean ± S.D., at least three tests",0.046 ± 0.003 µM
same,Apoptosis Early,MCF-7 cells [3],5.33%
same,Apoptosis Late,MCF-7 cells [3],20.53%
same,Apoptosis Total,MCF-7 cells [3],37.11%
same,Enhancement of late apoptosis compared with untreated cells,MCF-7 cells [3],114 fold
same,Necrosis,MCF-7 cells [3],11.25%
same,Percentage of DNA fragmentation,HepG2 and MCF-7 cells,~23 ± 1.2%
same,IC50,hMAO-B,> 100 µM
same,IC50,HepG2 cells,24.7 ± 1.01 µM
same,IC50 at 72 h,in vitro,> 85 µM
